Consider 30 compounds from ChEMBL document CHEMBL5442175, “EUbOPEN Chemogenomics Library - PDSP Secondary Binding” (2024).

Each structure is given as a SMILES string. Where a name gives a salt, the structure may show the parent alone.

Test [1] has as its target Sodium-dependent noradrenaline transporter (Homo sapiens, UniProt P23975). Kind of test: PDSP Secondary Binding target: SLC6A2 - Compounds are tested at 10 uM concentration, plate are incubated at room temperature in the dark for 90 minutes. Reaction are stopped by vacuum filtration onto 0.3% polyethyleneimine soaked filter mats using Filtermate harvester. Scintillation cocktail is then melted onto microwave-dried filters on a hot plate and the radio activity is counted in Microbia counter.

Test [2] has as its target Sodium-dependent dopamine transporter (Homo sapiens, UniProt Q01959). Kind of test: PDSP Secondary Binding target: SLC6A3 - Compounds are tested at 10 uM concentration, plate are incubated at room temperature in the dark for 90 minutes. Reaction are stopped by vacuum filtration onto 0.3% polyethyleneimine soaked filter mats using Filtermate harvester. Scintillation cocktail is then melted onto microwave-dried filters on a hot plate and the radio activity is counted in Microbia counter.

Test [3] addresses 5-hydroxytryptamine receptor 7 (Homo sapiens, UniProt P34969). Briefly: PDSP Secondary Binding target: HTR7 - Compounds are tested at 10 uM concentration, plate are incubated at room temperature in the dark for 90 minutes. Reaction are stopped by vacuum filtration onto 0.3% polyethyleneimine soaked filter mats using Filtermate harvester. Scintillation cocktail is then melted onto microwave-dried filters on a hot plate and the radio activity is counted in Microbia counter.

For a further test, the target named is Translocator protein (Homo sapiens, UniProt P30536). Briefly: PDSP Secondary Binding target: TSPO - Compounds are tested at 10 uM concentration, plate are incubated at room temperature in the dark for 90 minutes. Reaction are stopped by vacuum filtration onto 0.3% polyethyleneimine soaked filter mats using Filtermate harvester. Scintillation cocktail is then melted onto microwave-dried filters on a hot plate and the radio activity is counted in Microbia counter.

Test [4] deals with Sigma intracellular receptor 2 (Homo sapiens, UniProt Q5BJF2). Briefly: PDSP Secondary Binding target: TMEM97 - Compounds are tested at 10 uM concentration, plate are incubated at room temperature in the dark for 90 minutes. Reaction are stopped by vacuum filtration onto 0.3% polyethyleneimine soaked filter mats using Filtermate harvester. Scintillation cocktail is then melted onto microwave-dried filters on a hot plate and the radio activity is counted in Microbia counter.

Test [5] has as its target Sigma non-opioid intracellular receptor 1 (Homo sapiens, UniProt Q99720). Kind of test: PDSP Secondary Binding target: SIGMAR1 - Compounds are tested at 10 uM concentration, plate are incubated at room temperature in the dark for 90 minutes. Reaction are stopped by vacuum filtration onto 0.3% polyethyleneimine soaked filter mats using Filtermate harvester. Scintillation cocktail is then melted onto microwave-dried filters on a hot plate and the radio activity is counted in Microbia counter.

A further test concerns the target D(3) dopamine receptor (Homo sapiens, UniProt P35462). Kind of test: PDSP Secondary Binding target: DRD3 - Compounds are tested at 10 uM concentration, plate are incubated at room temperature in the dark for 90 minutes. Reaction are stopped by vacuum filtration onto 0.3% polyethyleneimine soaked filter mats using Filtermate harvester. Scintillation cocktail is then melted onto microwave-dried filters on a hot plate and the radio activity is counted in Microbia counter.

Test [6] has as its target T1, Muscarinic acetylcholine receptor M5 (Homo sapiens, UniProt P08912).
T1 sequence (P08912 whole entry): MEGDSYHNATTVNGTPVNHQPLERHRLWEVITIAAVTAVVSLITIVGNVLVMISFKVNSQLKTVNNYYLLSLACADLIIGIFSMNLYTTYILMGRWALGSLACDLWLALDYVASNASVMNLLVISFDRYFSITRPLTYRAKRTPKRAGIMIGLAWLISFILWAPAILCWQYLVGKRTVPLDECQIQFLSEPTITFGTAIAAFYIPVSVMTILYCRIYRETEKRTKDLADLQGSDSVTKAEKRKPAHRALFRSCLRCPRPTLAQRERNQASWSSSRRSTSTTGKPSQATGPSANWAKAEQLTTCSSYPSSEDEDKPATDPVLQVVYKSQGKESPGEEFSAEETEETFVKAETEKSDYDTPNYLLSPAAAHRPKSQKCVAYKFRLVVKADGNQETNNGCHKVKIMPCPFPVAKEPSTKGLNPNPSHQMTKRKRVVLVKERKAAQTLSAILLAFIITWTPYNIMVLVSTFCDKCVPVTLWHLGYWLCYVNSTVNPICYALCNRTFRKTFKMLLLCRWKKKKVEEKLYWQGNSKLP
Kind of test: PDSP Secondary Binding target: CHRM5 - Compounds are tested at 10 uM concentration, plate are incubated at room temperature in the dark for 90 minutes. Reaction are stopped by vacuum filtration onto 0.3% polyethyleneimine soaked filter mats using Filtermate harvester. Scintillation cocktail is then melted onto microwave-dried filters on a hot plate and the radio activity is counted in Microbia counter.

Test [7] concerns the target T2, Alpha-2A adrenergic receptor (Homo sapiens, UniProt P08913).
T2 sequence (P08913 whole entry): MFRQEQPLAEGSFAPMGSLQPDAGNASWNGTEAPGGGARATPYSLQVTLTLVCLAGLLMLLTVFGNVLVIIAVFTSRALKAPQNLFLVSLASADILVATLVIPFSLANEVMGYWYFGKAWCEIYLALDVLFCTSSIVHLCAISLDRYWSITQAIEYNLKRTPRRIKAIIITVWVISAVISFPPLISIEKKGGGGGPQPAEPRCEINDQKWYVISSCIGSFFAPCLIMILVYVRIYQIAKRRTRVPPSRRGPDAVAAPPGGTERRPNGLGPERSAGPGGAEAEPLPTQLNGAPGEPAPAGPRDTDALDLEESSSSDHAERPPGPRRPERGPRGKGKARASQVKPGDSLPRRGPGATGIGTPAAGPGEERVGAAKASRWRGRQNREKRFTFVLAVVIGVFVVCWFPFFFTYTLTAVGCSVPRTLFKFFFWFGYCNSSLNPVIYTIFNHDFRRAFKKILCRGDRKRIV
Kind of test: PDSP Secondary Binding target: ADRA2A - Compounds are tested at 10 uM concentration, plate are incubated at room temperature in the dark for 90 minutes. Reaction are stopped by vacuum filtration onto 0.3% polyethyleneimine soaked filter mats using Filtermate harvester. Scintillation cocktail is then melted onto microwave-dried filters on a hot plate and the radio activity is counted in Microbia counter.

Test [8] has as its target 5-hydroxytryptamine receptor 2A (Homo sapiens, UniProt P28223). Kind of test: PDSP Secondary Binding target: HTR2A - Compounds are tested at 10 uM concentration, plate are incubated at room temperature in the dark for 90 minutes. Reaction are stopped by vacuum filtration onto 0.3% polyethyleneimine soaked filter mats using Filtermate harvester. Scintillation cocktail is then melted onto microwave-dried filters on a hot plate and the radio activity is counted in Microbia counter.

In test [9] the target is T3, Alpha-1B adrenergic receptor (Homo sapiens, UniProt P35368).
T3 sequence (P35368 whole entry): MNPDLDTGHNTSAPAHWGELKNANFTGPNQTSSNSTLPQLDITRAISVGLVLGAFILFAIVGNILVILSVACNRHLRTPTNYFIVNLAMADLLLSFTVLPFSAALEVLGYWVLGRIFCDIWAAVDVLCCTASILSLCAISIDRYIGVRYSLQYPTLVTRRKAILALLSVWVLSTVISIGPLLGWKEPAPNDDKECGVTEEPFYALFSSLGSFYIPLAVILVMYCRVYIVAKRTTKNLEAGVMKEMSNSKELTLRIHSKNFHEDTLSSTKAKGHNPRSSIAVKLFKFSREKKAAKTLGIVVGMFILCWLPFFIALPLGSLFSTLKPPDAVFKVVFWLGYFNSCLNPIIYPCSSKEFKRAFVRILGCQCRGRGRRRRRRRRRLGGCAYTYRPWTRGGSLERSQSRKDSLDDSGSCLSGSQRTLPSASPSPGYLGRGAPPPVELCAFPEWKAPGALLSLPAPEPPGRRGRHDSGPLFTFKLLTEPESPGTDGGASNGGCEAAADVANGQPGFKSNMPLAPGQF
Briefly: PDSP Secondary Binding target: ADRA1B - Compounds are tested at 10 uM concentration, plate are incubated at room temperature in the dark for 90 minutes. Reaction are stopped by vacuum filtration onto 0.3% polyethyleneimine soaked filter mats using Filtermate harvester. Scintillation cocktail is then melted onto microwave-dried filters on a hot plate and the radio activity is counted in Microbia counter.

Test [10] deals with 5-hydroxytryptamine receptor 1D (Homo sapiens, UniProt P28221). Kind of test: PDSP Secondary Binding target: HTR1D - Compounds are tested at 10 uM concentration, plate are incubated at room temperature in the dark for 90 minutes. Reaction are stopped by vacuum filtration onto 0.3% polyethyleneimine soaked filter mats using Filtermate harvester. Scintillation cocktail is then melted onto microwave-dried filters on a hot plate and the radio activity is counted in Microbia counter.
Sequence of 5-hydroxytryptamine receptor 1D (P28221 whole entry): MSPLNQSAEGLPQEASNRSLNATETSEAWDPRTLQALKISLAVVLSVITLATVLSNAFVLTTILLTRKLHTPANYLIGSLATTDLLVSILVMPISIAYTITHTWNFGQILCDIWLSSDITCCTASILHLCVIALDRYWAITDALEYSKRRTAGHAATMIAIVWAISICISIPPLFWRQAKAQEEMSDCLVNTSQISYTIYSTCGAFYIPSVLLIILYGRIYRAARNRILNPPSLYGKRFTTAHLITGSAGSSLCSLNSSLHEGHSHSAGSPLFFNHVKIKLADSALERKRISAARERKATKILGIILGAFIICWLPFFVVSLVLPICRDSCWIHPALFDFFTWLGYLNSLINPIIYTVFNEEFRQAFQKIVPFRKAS

Sequence of Sigma intracellular receptor 2 (Q5BJF2 whole entry): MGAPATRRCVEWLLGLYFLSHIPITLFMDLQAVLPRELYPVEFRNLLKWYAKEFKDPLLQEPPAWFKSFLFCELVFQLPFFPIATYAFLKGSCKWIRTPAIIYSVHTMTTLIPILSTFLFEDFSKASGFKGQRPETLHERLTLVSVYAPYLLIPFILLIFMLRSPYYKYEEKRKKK
Sequence of D(3) dopamine receptor (P35462 whole entry): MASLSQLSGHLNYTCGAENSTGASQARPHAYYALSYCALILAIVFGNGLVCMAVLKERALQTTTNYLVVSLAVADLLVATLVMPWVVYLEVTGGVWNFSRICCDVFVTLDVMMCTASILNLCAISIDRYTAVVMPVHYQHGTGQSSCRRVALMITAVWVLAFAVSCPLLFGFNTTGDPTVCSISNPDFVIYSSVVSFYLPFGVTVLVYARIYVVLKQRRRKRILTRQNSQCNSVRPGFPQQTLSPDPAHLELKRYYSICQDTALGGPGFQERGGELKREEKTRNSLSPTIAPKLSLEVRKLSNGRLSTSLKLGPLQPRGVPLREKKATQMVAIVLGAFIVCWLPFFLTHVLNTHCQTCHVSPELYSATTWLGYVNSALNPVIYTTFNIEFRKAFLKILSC
Sequence of Sodium-dependent dopamine transporter (Q01959 whole entry): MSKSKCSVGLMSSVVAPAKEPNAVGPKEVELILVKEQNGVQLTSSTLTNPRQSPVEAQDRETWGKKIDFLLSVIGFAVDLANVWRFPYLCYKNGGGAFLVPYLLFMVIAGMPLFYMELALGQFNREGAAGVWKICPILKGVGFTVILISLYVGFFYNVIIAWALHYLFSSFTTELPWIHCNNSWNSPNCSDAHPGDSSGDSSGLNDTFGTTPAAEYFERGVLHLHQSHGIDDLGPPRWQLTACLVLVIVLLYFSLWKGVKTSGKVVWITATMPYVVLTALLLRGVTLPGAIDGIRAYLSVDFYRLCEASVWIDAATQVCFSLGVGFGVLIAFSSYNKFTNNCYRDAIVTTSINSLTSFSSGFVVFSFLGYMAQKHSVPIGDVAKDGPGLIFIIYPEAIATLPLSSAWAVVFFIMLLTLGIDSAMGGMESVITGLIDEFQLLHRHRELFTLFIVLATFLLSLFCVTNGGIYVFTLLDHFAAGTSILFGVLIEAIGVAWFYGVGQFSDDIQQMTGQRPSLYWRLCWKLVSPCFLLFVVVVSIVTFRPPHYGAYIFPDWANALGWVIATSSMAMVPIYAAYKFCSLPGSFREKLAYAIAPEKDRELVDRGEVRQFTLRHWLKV
Sequence of 5-hydroxytryptamine receptor 2A (P28223 whole entry): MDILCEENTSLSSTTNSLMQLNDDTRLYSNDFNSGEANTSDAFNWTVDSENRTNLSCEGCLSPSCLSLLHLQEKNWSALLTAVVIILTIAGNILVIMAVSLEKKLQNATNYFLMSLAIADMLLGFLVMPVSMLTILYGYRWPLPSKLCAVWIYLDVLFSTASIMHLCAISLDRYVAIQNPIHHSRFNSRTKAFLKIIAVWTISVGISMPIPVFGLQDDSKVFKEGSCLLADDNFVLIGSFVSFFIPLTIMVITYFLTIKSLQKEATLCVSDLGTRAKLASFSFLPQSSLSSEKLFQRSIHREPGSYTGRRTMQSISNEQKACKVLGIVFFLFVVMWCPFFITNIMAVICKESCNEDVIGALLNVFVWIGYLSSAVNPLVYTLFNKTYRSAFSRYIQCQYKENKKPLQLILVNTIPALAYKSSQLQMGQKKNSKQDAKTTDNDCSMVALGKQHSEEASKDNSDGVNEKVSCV
Sequence of Sigma non-opioid intracellular receptor 1 (Q99720 whole entry): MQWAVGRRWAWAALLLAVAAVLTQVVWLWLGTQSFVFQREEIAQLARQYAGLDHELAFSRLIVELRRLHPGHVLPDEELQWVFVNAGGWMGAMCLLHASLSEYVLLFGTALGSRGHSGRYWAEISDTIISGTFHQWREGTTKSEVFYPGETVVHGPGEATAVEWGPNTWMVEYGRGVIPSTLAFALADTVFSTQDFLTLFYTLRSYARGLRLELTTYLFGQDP
Sequence of Translocator protein (P30536 whole entry): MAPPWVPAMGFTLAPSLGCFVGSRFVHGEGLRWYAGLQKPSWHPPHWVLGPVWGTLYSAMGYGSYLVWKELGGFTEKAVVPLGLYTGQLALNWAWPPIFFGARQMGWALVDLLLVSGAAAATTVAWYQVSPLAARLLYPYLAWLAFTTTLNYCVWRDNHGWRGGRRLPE
Sequence of 5-hydroxytryptamine receptor 7 (P34969 whole entry): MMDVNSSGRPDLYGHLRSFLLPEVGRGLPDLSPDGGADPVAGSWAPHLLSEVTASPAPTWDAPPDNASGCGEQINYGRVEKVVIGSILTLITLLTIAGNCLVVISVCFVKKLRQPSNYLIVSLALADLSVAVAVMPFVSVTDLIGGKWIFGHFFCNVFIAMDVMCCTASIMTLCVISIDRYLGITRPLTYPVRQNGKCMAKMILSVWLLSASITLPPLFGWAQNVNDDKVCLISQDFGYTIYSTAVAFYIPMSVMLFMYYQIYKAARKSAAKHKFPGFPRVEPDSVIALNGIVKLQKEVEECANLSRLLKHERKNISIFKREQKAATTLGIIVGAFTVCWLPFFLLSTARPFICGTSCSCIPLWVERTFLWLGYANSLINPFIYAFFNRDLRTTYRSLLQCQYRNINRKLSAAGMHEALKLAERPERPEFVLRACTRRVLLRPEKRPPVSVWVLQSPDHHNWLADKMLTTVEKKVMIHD
Sequence of Sodium-dependent noradrenaline transporter (P23975 whole entry): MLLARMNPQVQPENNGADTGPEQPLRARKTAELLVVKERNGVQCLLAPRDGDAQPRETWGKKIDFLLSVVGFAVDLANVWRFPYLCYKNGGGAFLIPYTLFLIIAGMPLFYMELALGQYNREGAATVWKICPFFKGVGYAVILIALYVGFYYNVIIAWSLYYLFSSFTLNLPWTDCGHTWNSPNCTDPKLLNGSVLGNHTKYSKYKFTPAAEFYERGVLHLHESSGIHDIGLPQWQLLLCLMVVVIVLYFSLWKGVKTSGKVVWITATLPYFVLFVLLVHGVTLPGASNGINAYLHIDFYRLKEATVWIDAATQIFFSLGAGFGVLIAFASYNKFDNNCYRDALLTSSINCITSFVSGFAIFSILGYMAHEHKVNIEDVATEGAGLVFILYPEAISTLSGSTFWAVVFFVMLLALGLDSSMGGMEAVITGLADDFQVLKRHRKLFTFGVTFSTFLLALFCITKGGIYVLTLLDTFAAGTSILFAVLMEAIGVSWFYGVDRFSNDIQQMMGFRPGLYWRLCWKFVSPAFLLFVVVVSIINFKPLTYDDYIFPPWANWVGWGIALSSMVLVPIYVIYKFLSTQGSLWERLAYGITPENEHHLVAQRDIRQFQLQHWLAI

By Ki is commonly meant the dissociation constant of the complex between target and ligand, obtained from inhibition or displacement. High values mean a looser hold on the target, low ones a stronger hold on the target. With `Cc1cc(C)c(N)c(C#Cc2cccc(F)c2)n1` [RASEGLURANT], the affinity in [1], expressed as Ki, was 345 nM.
For `CCCn1c(=O)c2[nH]c(C34CC5CC(CC3C5)C4)nc2n(CCC)c1=O` [ROLOFYLLINE], the Ki in test [2] is 3360 nM.
`CNC[C@H](O)c1cccc(O)c1` [PHENYLEPHRINE] gave a Ki in test [3] of 1110 nM.
The compound `CC1(C)SSC(C)(C)[C@@H](NC(=O)[C@@H](N)Cc2ccc(O)cc2)C(=O)NCC(=O)N[C@@H](Cc2ccccc2)C(=O)N[C@H]1C(=O)O` came in with an inhibition constant Ki on Translocator protein of 1630 nM.
Regarding `CCCCCCCCCCCCC/C=C/[C@@H](O)[C@@H](N)COP(=O)(O)O`, the values for the Ki (in test [4]; in test [5]; at Translocator protein) were 672 nM, 5980 nM and 3120 nM, respectively.
With `O=C1O[C@]2(CC[C@H](C(=O)Nc3ccn(-c4ccccc4F)n3)CC2)c2cnccc21` [MK-0557], the affinity at D(3) dopamine receptor, expressed as Ki, was 3570 nM.
In [6], `N#Cc1c(O)nc(SCc2cccc(F)c2F)nc1C1CC1` had a Ki of 6560 nM.
`CCC(=O)NCC[C@@H]1CCc2ccc3c(c21)CCO3` [RAMELTEON]: the Ki in test [5] stood at 8850 nM.
The compound `Cc1c(F)cccc1NC(=O)Nc1ccc(Cl)c(S(=O)(=O)[C@H]2CCCNC2)c1O` [DANIRIXIN] had a Ki in test [7] greater than 10000 nM.
On Translocator protein, `NC(=O)[C@@H]1CCCN1C(=O)[C@H](Cc1cnc[nH]1)NC(=O)[C@@H]1CCC(=O)N1` [PROTIRELIN] registered a Ki greater than 10000 nM.
For the compound `COc1ccc(CNC(=O)c2cc(-c3cncc(Cl)c3)cnc2-c2ccccn2)nc1OC` [MK-1064], the Ki in [8] amounted to 4590 nM.
Compound `O=C(O)CC1CCC2(CC1)CCN(c1cc(OC(F)(F)F)ccc1Cl)CC2` came in with a Ki at D(3) dopamine receptor of 591 nM.
At D(3) dopamine receptor, `COc1ccc(/C=C/CCCCOc2ccc(C(=O)c3cccc(C(=O)O)c3)cc2CCC(=O)O)cc1` showed a Ki of 1960 nM.
In the case of `CCCCN(CC)c1nc(C)nc2c1c(C)cn2-c1c(C)cc(C)cc1C`, the Ki in test [4] was 2120 nM; at Translocator protein, 1880 nM.
In the case of `Cc1nc(-c2ccc(C(F)(F)F)cc2)sc1COc1ccc([C@H](CC(=O)O)c2ccon2)cc1`, the Ki in test [6] is 6850 nM; in test [2] it was 4490 nM; in [9], greater than 10000 nM.
On to `CC1=C2C[C@H]3[C@@H](CC=C4C[C@@H](O)CC[C@@]43C)[C@@H]2CC[C@]12O[C@@H]1C[C@H](C)CN[C@H]1[C@H]2C` [CYCLOPAMINE], for which the Ki in test [2] worked out at 3420 nM; in [4], 599 nM.
On to `CCCCC#Cc1nc(NC)c2ncn([C@@H]3O[C@H](CO)[C@@H](O)[C@H]3O)c2n1`, for which the Ki in [2] was greater than 10000 nM; in test [8] it was 7870 nM.
In the case of `CC(C)NCC(O)COc1ccc(CCOCC2CC2)cc1` (configuration not stated) [BETAXOLOL HYDROCHLORIDE], the values for the Ki in test [4] and in test [5] were 1650 nM and 248 nM, respectively.
In the case of `COc1ccccc1CN[C@H]1C2CCN(CC2)[C@H]1C(c1ccccc1)c1ccccc1` [CP-96345], the Ki was 4940 nM in [6] and 906 nM in test [4].
`CN1C(=O)[C@@H](NC(=O)c2cc3ccccc3[nH]2)N=C(c2ccccc2)c2ccccc21` [DEVAZEPIDE]: the Ki on Translocator protein is 3330 nM.
As to `O=C(Cc1ccccc1)Nc1nc2ccc(Cl)cc2c2nc(-c3ccco3)nn12`, the Ki in test [10] was greater than 10000 nM.
Consider `CC(C)Oc1ccccc1C(=O)Nc1ccccc1C(=O)Nc1cccc(S(=O)(=O)C(F)(F)F)c1`, for which the Ki in test [8] was determined as 983 nM; on Translocator protein, 111 nM.
On to `COC1CCN(c2cccc(-c3cc(NC(C)=O)nc(-n4nc(C)cc4C)n3)n2)CC1`, for which the values for the Ki (in test [5]; at Translocator protein) were 474 nM and 969 nM, respectively.
With `COc1ccc(Br)cc1S(=O)(=O)NC(=O)/C=C/c1ccccc1Cc1ccc2ccccc2c1`, on D(3) dopamine receptor, the Ki came to 582 nM.
Turning to `Cc1csc(NC(=O)c2cc(F)cc(Oc3cncnc3)c2)n1`, the values for the Ki (in test [6]; in test [2]; at D(3) dopamine receptor) were greater than 10000 nM, 2990 nM and 2140 nM, respectively.
For `COC(=O)[C@H]1[C@H]2C[C@H]3c4[nH]c5ccccc5c4CCN3C[C@H]2CC[C@@H]1O` [RAUWOLSCINE HYDROCHLORIDE], the figures for the Ki in [3] and in [5] were 333 nM and 2780 nM, respectively.
Turning to `Nc1nc(NCCc2ccc(O)cc2)nc2nc(-c3ccco3)nn12` [ZM-241385], in test [4], the Ki amounted to 1070 nM.
Regarding `CO[C@@H]1COCC[C@@H]1N[C@@H]1CC[C@@](C(=O)N2CCc3ncc(C(F)(F)F)cc3C2)(C(C)C)C1` [MK-0812], the inhibition constant Ki in test [4] was 1870 nM; in test [5], 830 nM.
On to `FC(F)(F)c1c(N2CCC(c3ccccc3)CC2)ccn2c(CC3CC3)nnc12`, for which the Ki came to 4310 nM in test [2] and 983 nM in test [5].
Regarding `CCCSc1nc(N[C@@H]2C[C@H]2c2ccc(F)c(F)c2)c2nnn([C@@H]3C[C@H](OCCO)[C@@H](O)[C@H]3O)c2n1` [TICAGRELOR], the figures for the Ki in test [2] and in test [4] were 519 nM and 1300 nM, respectively.
